Experimental data reported in patent publication US20260226048A1, “MULTI-CYCLIC IRAK AND FLT3 INHIBITING COMPOUNDS AND USES THEREOF” (CHILDREN'S HOSPITAL MEDICAL CENTER, priority 2023, published 2026).

What was measured:
IRAK4 = target: T1, IRAK4 (Homo sapiens, UniProt Q9NWZ3); assay: DiscoverX KINOMEscan competition binding assay, IRAK4; design: purchased Reaction Biology (RBC HotSpot); details: 11-point 3-fold dilution
T1 sequence (Q9NWZ3 1-460): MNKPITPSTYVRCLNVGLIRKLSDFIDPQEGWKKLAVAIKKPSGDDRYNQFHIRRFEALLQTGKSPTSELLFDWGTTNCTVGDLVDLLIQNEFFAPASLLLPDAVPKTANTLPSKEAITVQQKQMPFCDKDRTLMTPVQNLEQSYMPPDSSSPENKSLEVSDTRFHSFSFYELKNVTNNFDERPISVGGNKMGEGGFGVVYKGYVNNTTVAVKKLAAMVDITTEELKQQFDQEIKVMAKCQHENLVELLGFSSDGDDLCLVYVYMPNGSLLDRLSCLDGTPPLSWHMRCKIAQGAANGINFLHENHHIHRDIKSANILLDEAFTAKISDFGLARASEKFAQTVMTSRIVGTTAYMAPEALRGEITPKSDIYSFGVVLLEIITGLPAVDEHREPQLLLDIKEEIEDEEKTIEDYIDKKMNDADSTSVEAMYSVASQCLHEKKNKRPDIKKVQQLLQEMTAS
From the text: (§1) […]. […] As a result, the data report thermodynamic interaction affinities (Kd values), rather than IC50 values that are dependent on ATP concentrations. The assay uses a DNA-tagged version of the protein kinase, and an immobilized ligand bound to a solid support. Compounds that directly or indirectly prevent kinase binding to the immobilized ligand reduce the amount of kinase captured on the solid support, which is detected using an ultra-sensitive qPCR method. Affinity constants reported from the assay have been reported to be independent of the immobilized ligand used that is coupled to the solid support (See supplemental information in Fabian, M. A. et. al., (2005) Nat. Biotechnol. 23, 329-336; Wodicka, L. M. et. al., (2010) Chem. Biol. 17, 1241-1249.)
(§2) Kinase-tagged T7 phage strains were prepared in an E. coli host derived from the BL21 strain. E. coli were grown to log-phase and infected with T7 phage and incubated with shaking at 32° C. until lysis. The lysates were centrifuged and filtered to remove cell debris. The remaining kinases were produced in HEK-293 cells and subsequently tagged with DNA for qPCR detection. Streptavidin-coated magnetic beads were treated with biotinylated small molecule ligands for 30 minutes at room temperature to generate affinity resins for kinase assays. The liganded beads were blocked with excess biotin and washed with blocking buffer (SeaBlock (Pierce), 1% BSA, 0.05% Tween 20, 1 mM DTT) to remove unbound ligand and to reduce non-specific binding. […] Test compounds were prepared as 111× stocks in 100% DMSO. Kds were determined using an 11-point 3-fold compound dilution series with three DMSO control points. All compounds for Kd measurements are distributed by acoustic transfer (non-contact dispensing) in 100% DMSO. The compounds were then diluted directly into the assays such that the final concentration of DMSO was 0.9%. All reactions were performed in polypropylene 384-well plates. Each was a final volume of 0.02 mL. […] The kinase concentration in the eluates was measured by qPCR.
(§3) Binding constants (Kds) were calculated with a standard dose-response curve using the Hill equation. The Hill Slope was set to −1. Curves were fitted using a non-linear least square fit with the Levenberg-Marquardt algorithm.

FLT3 D835H = target: T2, FLT3 D835H (Homo sapiens, UniProt P36888, D835H); assay: DiscoverX KINOMEscan competition binding assay, FLT3 D835H; details: 11-point 3-fold dilution
T2 construct: purchased DiscoverX (KINOMEscan); host or cells: E. coli BL21-derived host (T7 phage) or HEK-293
T2 sequence (P36888 27-993 D835H): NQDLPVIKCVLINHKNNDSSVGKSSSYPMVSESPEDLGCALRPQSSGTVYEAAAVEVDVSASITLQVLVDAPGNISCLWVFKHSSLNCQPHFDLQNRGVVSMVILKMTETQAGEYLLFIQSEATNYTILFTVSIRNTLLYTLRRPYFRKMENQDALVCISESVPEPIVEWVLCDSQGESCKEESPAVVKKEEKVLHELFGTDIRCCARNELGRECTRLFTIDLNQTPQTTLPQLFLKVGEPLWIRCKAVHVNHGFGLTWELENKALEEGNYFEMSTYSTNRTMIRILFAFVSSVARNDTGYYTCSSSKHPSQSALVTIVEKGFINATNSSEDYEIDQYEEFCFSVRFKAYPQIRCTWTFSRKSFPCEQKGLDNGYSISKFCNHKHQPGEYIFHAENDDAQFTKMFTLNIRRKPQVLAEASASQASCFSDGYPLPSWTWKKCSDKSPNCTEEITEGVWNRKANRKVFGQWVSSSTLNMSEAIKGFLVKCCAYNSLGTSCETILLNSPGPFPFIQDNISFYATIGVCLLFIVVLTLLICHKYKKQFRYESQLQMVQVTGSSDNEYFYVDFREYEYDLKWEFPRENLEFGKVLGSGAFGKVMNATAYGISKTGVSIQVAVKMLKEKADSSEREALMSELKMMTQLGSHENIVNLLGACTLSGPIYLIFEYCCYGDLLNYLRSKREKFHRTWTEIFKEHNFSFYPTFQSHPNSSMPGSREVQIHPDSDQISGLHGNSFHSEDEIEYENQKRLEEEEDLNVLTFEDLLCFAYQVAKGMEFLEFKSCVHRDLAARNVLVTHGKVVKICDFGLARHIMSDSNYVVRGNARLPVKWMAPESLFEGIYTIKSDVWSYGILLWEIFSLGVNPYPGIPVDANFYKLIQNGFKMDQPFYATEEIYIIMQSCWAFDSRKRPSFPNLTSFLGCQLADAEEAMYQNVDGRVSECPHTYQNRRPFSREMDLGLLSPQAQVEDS
From the text: as §1, §2, §3

Row | Compound | Kd (IRAK4) [nM] | Kd (FLT3 D835H) [nM]
1 | COc1cc2ncc(-c3nc(N[C@H]4CNCC[C@@H]4F)ncc3F)n2nc1C1COC1 [Compound 92a, 5-fluoro-N-((3S,4S)-4-fluoropiperidin-3-yl)-4-(7-methoxy-6-(oxetan-3-yl)imidazo[1,2-b]pyridazin-3-yl)pyrimidin-2-amine] | < 0.17 | < 0.17
2 | CC(C)(O)c1cn2c(-c3nc(N[C@H]4CNCC[C@@H]4F)ncc3F)cnc2cn1 [Compound 100a, 2-(3-(5-fluoro-2-(((3S,4S)-4-fluoropiperidin-3-yl)amino)pyrimidin-4-yl)imidazo[1,2-a]pyrazin-6-yl)propan-2-ol] | 1.5 | 6.3
3 | CC(C)(O)c1ccc2ncc(-c3nc(N[C@H]4CNCC[C@@H]4F)ncc3F)n2c1 [Compound 46a, 2-(3-(5-fluoro-2-(((3S,4S)-4-fluoropiperidin-3-yl)amino)pyrimidin-4-yl)imidazo[1,2-a]pyridin-6-yl)propan-2-ol] | < 0.17 | 0.67
4 | COc1cc2ncc(-c3nc(N[C@H]4CNCC[C@@H]4F)ncc3F)n2nc1C1CC1 [Compound 1a, 4-(6-cyclopropyl-7-methoxyimidazo[1,2-b]pyridazin-3-yl)-5-fluoro-N-((3S,4S)-4-fluoropiperidin-3-yl)pyrimidin-2-amine] | < 0.17 | 0.22
5 | FC(F)COc1cc2ncc(-c3ccnc(N[C@H]4CNCC[C@@H]4F)n3)n2nc1C1CC1 [Compound 4a, 4-(6-cyclopropyl-7-(2,2-difluoroethoxy)imidazo[1,2-b]pyridazin-3-yl)-N-((3 S,4S)-4-fluoropiperidin-3-yl)pyrimidin-2-amine] | 0.59 | 0.7
6 | COc1cc2ncc(-c3nc(N[C@H]4CNCC[C@@H]4F)ncc3F)n2nc1C(C)(C)O [Compound 45a, 2-(3-(5-fluoro-2-(((3S,4S)-4-fluoropiperidin-3-yl)amino)pyrimidin-4-yl)-7-methoxyimidazo[1,2-b]pyridazin-6-yl)propan-2-ol] | 0.58 | 0.42
7 | COc1cc2ncc(-c3nc(N[C@H]4CNCC[C@@H]4F)ncc3F)n2nc1N1CCCS1(=O)=O [Compound 112a, 2-(3-(5-fluoro-2-(((3S,4S)-4-fluoropiperidin-3-yl)amino)pyrimidin-4-yl)-7-methoxyimidazo[1,2-b]pyridazin-6-yl)isothiazolidine 1,1-dioxide] | 0.61 | < 0.17
